According to article PMC6117091, “The C. difficile clnRAB operon initiates adaptations to the host environment in response to LL-37” (PLoS Pathogens, 2018):
In brackets after ≈: the same amount, converted by molar mass.

Columns and labels:
[1] = tested on: C. difficile clnAB mutant; assay: Growth in minimal medium with LL-37, maximum doubling time; settings: mean ± SD, n ≥ 3
C. difficile clnR mutant [2] = assay: clnR and clnA expression by qRT-PCR in LL-37; format: cell-based, Clostridioides difficile; settings: 2 µg/ml LL-37, BHIS
Method: Fig 4 ClnR acts as a conditional repressor and inducer of clnRAB expression. […] RNA samples were collected and processed for qRT-PCR analysis as described in Methods. Graphs show the mean mRNA expression levels of A) clnR and B) clnA relative to expression in strain 630Δerm in BHIS alone. […] Data were analyzed by two-way ANOVA and Tukey’s multiple comparisons test, with comparisons indicated by brackets. * indicates p < 0.05, ** indicates p ≤ 0.0001.

[3] = tested on: C. difficile clnAB mutant; assay: qRT-PCR of selected RNA-seq transcripts in LL-37; settings: 2 µg/ml LL-37; normalized to 630∆erm in BHIS; mean ± SEM, n ≥ 3
[4] = tested on: TcdA in C. difficile 630Δerm (parent strain); assay: TcdA western blot; settings: 2 μg/ml LL-37, TY medium, 24 h, 37°C; three replicates
C. difficile clnR mutant [5] = assay: qRT-PCR of selected RNA-seq transcripts in LL-37; settings: 2 µg/ml LL-37; normalized to 630∆erm in BHIS; mean ± SEM, n ≥ 3
C. difficile clnR mutant [6] = assay: Growth in minimal medium with LL-37, maximum doubling time; settings: mean ± SD, n ≥ 3
C. difficile 630Δerm [7] = assay: Minimum bactericidal concentration (MBC); format: cell-based, Clostridioides difficile; settings: 1:10 dilution into BHIS, 24 h, 37°C, anaerobic
[8] = tested on: C. difficile clnR mutant (MC885); assay: Minimum inhibitory concentration (MIC); format: cell-based, Clostridioides difficile; settings: Mueller-Hinton Broth, 24 h, 37°C, anaerobic, ~5 x 10^5 CFU/ml
Method: (§1) Minimum inhibitory concentrations (MIC) were determined as previously described. […] Briefly, overnight cultures of C. difficile strains were diluted 1:50 in Mueller-Hinton Broth (Difco) and grown to OD600 of 0.45 (~5 x 10^7 CFU/ml). Cultures were then diluted 1:10 in MHB and seeded at a further 1:10 dilution in a round-bottom 96-well plate prepared with serial dilutions of antimicrobials for a starting concentration of ~5 x 10^5 CFU/ml. Plates were incubated for 24 h at 37°C in the anaerobic chamber.

[9] = tested on: C. difficile clnAB mutant (MC935); assay: Minimum inhibitory concentration (MIC); format: cell-based, Clostridioides difficile; settings: Mueller-Hinton Broth, 24 h, 37°C, anaerobic, ~5 x 10^5 CFU/ml
Method: as §1

C. difficile 630Δerm [10] = assay: Minimum inhibitory concentration (MIC); format: cell-based, Clostridioides difficile; settings: Mueller-Hinton Broth, 24 h, 37°C, anaerobic, ~5 x 10^5 CFU/ml
Method: as §1

[11] = tested on: C. difficile clnR Tn::clnRAB; assay: Growth in minimal medium with LL-37, maximum doubling time; settings: mean ± SD, n ≥ 3
[12] = tested on: tcdA, tcdB, sigD, tcdR, ilvC, CD0341 expression in C. difficile 630Δerm; assay: Toxin and regulator gene expression by qRT-PCR in LL-37
[13] = tested on: clnR expression in C. difficile 630Δerm; assay: clnR expression by qRT-PCR after exposure to antimicrobials (induction specificity); settings: 2 μg/ml, BHIS; normalized to 630Δerm in BHIS without antimicrobials; mean of three replicates ± SEM
[14] = tested on: C. difficile clnAB Tn::clnRAB; assay: Growth in minimal medium with LL-37, maximum doubling time; settings: mean ± SD, n ≥ 3
[15] = tested on: C. difficile clnR and clnA mutants; assay: Growth in BHIS with LL-37; settings: 2.5 μg/ml LL-37 in BHIS, versus parent strain
[16] = tested on: C. difficile clnR and clnAB mutants; assay: Growth in minimal medium with LL-37 (growth curves); settings: 0.5 μg/ml LL-37; base MM, MM with mannitol, NAG, EA; versus parent strain
[17] = tested on: C. difficile clnR Tn::clnRAB; assay: qRT-PCR of selected RNA-seq transcripts in LL-37; settings: 2 µg/ml LL-37; normalized to 630∆erm in BHIS; mean ± SEM, n ≥ 3
C. difficile 630Δerm [18] = assay: qRT-PCR of selected RNA-seq transcripts in LL-37; settings: 2 µg/ml LL-37; normalized to 630∆erm in BHIS; mean ± SEM, n ≥ 3
[19] = 0.5 µg/ml LL-37, MM + 30 mM NAG, § p < 0.05 vs no LL-37
[20] = 0.5 µg/ml LL-37, MM + 30 mM ethanolamine
[21] = 0.5 µg/ml LL-37, MM + 30 mM fructose
[22] = 0.5 µg/ml LL-37, MM + 30 mM glucose
[23] = 0.5 µg/ml LL-37, MM + 30 mM mannitol
[24] = 0.5 µg/ml LL-37, MM + 30 mM mannose
[25] = 0.5 µg/ml LL-37, MM + 30 mM NAG
[26] = 2 μg/ml LL-37, BHIS, log phase, wild-type cells, p < 0.05
[27] = 2 µg/ml LL-37, normalized to 630∆erm in BHIS, mean of three replicates ± SEM

With `CC[C@H](C)[C@H](NC(=O)[C@H](CCCCN)NC(=O)[C@H](CCC(=O)O)NC(=O)[C@H](CCCCN)NC(=O)[C@H](CO)NC(=O)[C@H](CCCCN)NC(=O)[C@H](CCCNC(=N)N)NC(=O)[C@H](Cc1ccccc1)NC(=O)[C@H](Cc1ccccc1)NC(=O)[C@H](CC(=O)O)NC(=O)CNC(=O)[C@H](CC(C)C)NC(=O)[C@@H](N)CC(C)C)C(=O)NCC(=O)N[C@@H](CCCCN)C(=O)N[C@@H](CCC(=O)O)C(=O)N[C@@H](Cc1ccccc1)C(=O)N[C@@H](CCCCN)C(=O)N[C@@H](CCCNC(=N)N)C(=O)N[C@H](C(=O)N[C@H](C(=O)N[C@@H](CCC(N)=O)C(=O)N[C@@H](CCCNC(=N)N)C(=O)N[C@H](C(=O)N[C@@H](CCCCN)C(=O)N[C@@H](CC(=O)O)C(=O)N[C@@H](Cc1ccccc1)C(=O)N[C@@H](CC(C)C)C(=O)N[C@@H](CCCNC(=N)N)C(=O)N[C@@H](CC(N)=O)C(=O)N[C@@H](CC(C)C)C(=O)N[C@H](C(=O)N1CCC[C@H]1C(=O)N[C@@H](CCCNC(=N)N)C(=O)N[C@H](C(=O)N[C@@H](CCC(=O)O)C(=O)N[C@@H](CO)C(=O)O)[C@@H](C)O)C(C)C)[C@@H](C)CC)C(C)C)[C@@H](C)CC` [LL-37] the Doubling time [1, 19] was 80.3 ± 1.0 min, the Doubling time [1, 20] was 79.6 ± 9.0 min and the Doubling time [1, 21] was 65.1 ± 2.0 min. For the same molecule, the Doubling time [1, 22] was 62.1 ± 2.2 min, the Doubling time [1, 23] was 58.3 ± 5.5 min and the Doubling time [1, 24] was 66.8 ± 4.5 min. For the same molecule, the Doubling time ([1]; 0.5 µg/ml LL-37, base MM) was 77.1 ± 5.3 min, the “clnR and clnA expression (in words)” value (C. difficile clnR mutant [2]) was “no longer induced in the clnR mutant” and the “cstA (CD630_26000) relative expression” value [3] was 2.9 ± 1.2. For the same molecule, the “iorA (CD630_23810) relative expression” value [3] was 20.5 ± 7.3, the “mtlA (CD630_23340) relative expression” value [3] was 5.5 ± 4.3 and the “sigT (csfT; CD630_06770) relative expression” value [3] was 1.2 ± 0.1. The “sigU (csfU; CD630_18870) relative expression” value [3] was 3.1 ± 1.4, the “vanZ1 (CD630_12400) relative expression” value [3] was 0.9 ± 0.2 and the “TcdA levels, fold decrease” value [4] was “about 3 fold”. For the same molecule, the CD630_02840 relative expression (C. difficile clnR mutant [5]) was 2.2 ± 0.5, the “cstA (CD630_26000) relative expression” value (C. difficile clnR mutant [5]) was 2.3 ± 0.5 and the “grdA (CD630_23520) relative expression” value (C. difficile clnR mutant [5]) was 1.4 ± 0.1. For the same molecule, the “mtlA (CD630_23340) relative expression” value (C. difficile clnR mutant [5]) was 1.2 ± 0.7, the “sigT (csfT; CD630_06770) relative expression” value (C. difficile clnR mutant [5]) was 2.3 ± 1.1 and the “sigU (csfU; CD630_18870) relative expression” value (C. difficile clnR mutant [5]) was 2.0 ± 0.6. For the same molecule, the “vanZ1 (CD630_12400) relative expression” value (C. difficile clnR mutant [5]) was 13.4 ± 5.8, the Doubling time (C. difficile clnR mutant [6]; [25]) was 86.6 ± 2.5 min and the Doubling time (C. difficile clnR mutant [6]; [20]) was 84.9 ± 4.6 min. The Doubling time (C. difficile clnR mutant [6]; [21]) was 72.4 ± 0.9 min, the Doubling time (C. difficile clnR mutant [6]; [22]) was 74.0 ± 1.7 min and the Doubling time (C. difficile clnR mutant [6]; [23]) was 67.3 ± 1.5 min. It also gave a Doubling time (C. difficile clnR mutant [6]; [24]) of 78.4 ± 4.9 min, a Doubling time (C. difficile clnR mutant [6]; 0.5 µg/ml LL-37, base MM) of 74.1 ± 4.8 min and an MBC (C. difficile 630Δerm [7]) of 20 µg/mL (≈ 4.45 µM). For the same molecule, the MIC [8] was 15 µg/mL (≈ 3.34 µM), the MIC [9] was 15 µg/mL (≈ 3.34 µM) and the MIC (C. difficile 630Δerm [10]) was 15 µg/mL (≈ 3.34 µM). It also gave a Doubling time [11, 25] of 111.1 ± 16.5 min, a Doubling time [11, 20] of 93.4 ± 12.2 min and a Doubling time [11, 21] of 80.4 ± 7.4 min. The Doubling time [11, 22] was 76.4 ± 5.4 min, the Doubling time [11, 23] was 75.6 ± 5.3 min and the Doubling time [11, 24] was 80.4 ± 8.3 min. For the same molecule, the Doubling time ([11]; 0.5 µg/ml LL-37, base MM, § p < 0.05 vs no LL-37) was 84.8 ± 4.5 min, the “tcdA expression, fold increase” value [12, 26] was 4.6 fold and the “tcdB expression, fold increase” value [12, 26] was 2.2 fold. For the same molecule, the “sigD fold-change in expression in LL-37” value [12, 27] was 0.95 ± 0.08, the “tcdR fold-change in expression in LL-37” value [12, 27] was 1.47 ± 0.44 and the “ilvC fold-change in expression in LL-37” value ([12]; 2 µg/ml LL-37, normalized to 630∆erm in BHIS, mean of three replicates ± SEM, indicates CodY activity) was 2.21 ± 0.20. The “ilvC expression, fold increase” value ([12]; LL-37, p < 0.05) was 2.2 fold, the “Relative clnR expression” value [13] was 530.1 ±110.5 and the Doubling time [14, 19] was 83.6 ± 1.7 min. For the same molecule, the Doubling time [14, 20] was 84.0 ± 6.7 min, the Doubling time [14, 21] was 69.8 ± 2.5 min and the Doubling time [14, 22] was 70.8 ± 4.8 min. The Doubling time [14, 23] was 66.4 ± 1.8 min, the Doubling time [14, 24] was 72.6 ± 3.1 min and the Doubling time ([14]; 0.5 µg/ml LL-37, base MM) was 76.4 ± 2.6 min. The “growth (in words)” value [15] was “grew slightly better than the parent strain”, the “growth (in words)” value [16] was “grew better than the parent strain” and the CD630_02840 relative expression [17] was 602.6 ± 455.6. For the same molecule, the “cstA (CD630_26000) relative expression” value [17] was 36.3 ± 21.3, the “grdA (CD630_23520) relative expression” value [17] was 1649.2 ± 814.6 and the “mtlA (CD630_23340) relative expression” value [17] was 0.6 ± 0.2. For the same molecule, the CD630_02840 relative expression (C. difficile 630Δerm [18]) was 29.3 ± 18.8, the “grdA (CD630_23520) relative expression” value (C. difficile 630Δerm [18]) was 16.5 ± 10.5 and the “iorA (CD630_23810) relative expression” value (C. difficile 630Δerm [18]) was 16.8 ± 8.4. For the same molecule, the “mtlA (CD630_23340) relative expression” value (C. difficile 630Δerm [18]) was 1.0 ± 0.3 and the “sigU (csfU; CD630_18870) relative expression” value (C. difficile 630Δerm [18]) was 10.5 ± 6.8.
